# In patent US11352350B2, “IRAK degraders and uses thereof” (Kymera Therapeutics, Inc., priority 2018, dated 2022):
# Read-outs that look alike come from different tables or passages of the source.
# How the values were obtained:
# TNFα [1] = assay: Human PBMC LPS TNFα assay; format: cell-based; settings: hPBMC, LPS stimulation, read-out: IRAK4 hPBMC LPS TNF-α inhibition: Average external-IC50
# Method: Human PBMC LPS TNFα assay. Frozen PBMCs were thawed into RPMI with 10% FBS/1% penicillin/streptomycin and same day plated into 96 well plates at 200,000 PBMC/[…] media per well. Compound plates were prepared in DMSO with D300 cassette as 8-point dose curves in duplicate, starting dose 2 μM, 5-fold. Compounds are added 200 nL into cells for final 200 μL per well. Compound and cells were incubated at 37° C., 5% CO2 for 20 hours. After twenty hours of pretreatment with the compounds, LPS (01 1 1:B4) (Sigma #L2637) was added at 100 ng/ml final concentration and PBMCs incubated an additional five hours at 37° C., 5% CO2. Following assay completion, PBMC plates were spun down at 2000 rpm for 10 minutes. 100 uL of supernatant was carefully removed and placed into a new 96 well Costar (#3879) plate and stored at −80° C. until further analysis. Meso scale Discovery (MSD) human V-plex assays were used to measure cytokine levels. On day of cytokine analysis, supernatant samples were thawed, diluted with V-plex diluent #2, and directly to MSD plates. Assay was further completed per standard manufacturer's protocol. Cytokine data was normalized to LPS stimulated and unstimulated controls. Prism Graphpad was used to generate IC50 using 4 parameter logistic regression curve, free-fit.
# IRAK4 [2] = target: T1, IRAK4 (Homo sapiens (Human), UniProt Q9NWZ3); assay: IRAK4 MSD degradation in OCI-LY10; format: cell-based; settings: MSD
# T1 sequence (Q9NWZ3 whole entry): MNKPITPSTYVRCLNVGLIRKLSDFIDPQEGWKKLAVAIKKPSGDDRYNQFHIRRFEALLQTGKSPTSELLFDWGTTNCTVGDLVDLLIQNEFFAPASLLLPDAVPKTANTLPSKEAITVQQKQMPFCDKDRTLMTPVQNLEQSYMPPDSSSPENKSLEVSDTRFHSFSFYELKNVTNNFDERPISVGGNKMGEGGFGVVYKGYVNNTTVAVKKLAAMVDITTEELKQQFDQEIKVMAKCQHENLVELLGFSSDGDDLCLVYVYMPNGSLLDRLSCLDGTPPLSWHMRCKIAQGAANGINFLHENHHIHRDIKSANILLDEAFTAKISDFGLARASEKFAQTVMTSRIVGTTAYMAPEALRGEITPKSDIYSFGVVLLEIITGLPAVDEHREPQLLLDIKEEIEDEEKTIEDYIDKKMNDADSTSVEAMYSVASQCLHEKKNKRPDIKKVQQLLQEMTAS
# Procedure, shortened: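 Remaining IRAK4 quantified by electrochemiluminescent MSD sandwich assay with two anti-IRAK4 antibodies. Compounds were dosed as 8 concentrations in 1:3 steps from a 1 to 10 μM final top on OCI-LY10 cells, incubated 4 to 24 h at 37° C. under 5% CO2. DC50 fitted with a three-parameter logistic curve.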
# IRAK4 [3] = target: T1, IRAK4; assay: IRAK4 degradation in human whole blood lymphocyte - flow cytometry; format: cell-based; settings: read-out: IRAK4 degradation in whole blood lymphocyte-Flow cytometry: Average external Abs IC50
# Method: (§1) Human whole blood IRAK4 degradation flow assay. Whole blood was collected in heparinized tubes and plated on the same day as draw (day 0). Whole blood was aliquoted into deep well plates. Compound plates were prepared and a 10 point, 5-fold dilution was performed with a final DMSO concentration of 0.1%. Compound was added to whole blood deep well plate, sealed and incubated at 37° C., 5% CO2 for 20 hours (for 4 hour treatment, compounds were prepared and added the following day). Following the treatment incubation period (day 1), BD lyse fix (BD #558049) was added to the whole blood plate, placed on plate shaker for 30 seconds and incubated for 10 mins at room temperature. Whole blood was then spun down and washed two times with PBS/0.5% BSA, aspirated to pellet and placed into −80° C. freezer until further processing for flow. On the flow run day, whole blood plates were thawed and samples were transferred to PCR plates. The pre-perm staining cocktail (CD3 Ax488/CD8 BUV805/CD14 BUV395/CD16/56 BV711/CD19 BV785) was added to samples and incubated for 30 minutes at room temperature. Samples were washed two times and permeabilized with Methanol for 10 minutes at 4° C. Samples were washed two times and the post-perm staining cocktail (CD4 PE/IRAK4 Ax647 BD #560315) was added and incubated for 30 minutes at room temperature. Samples were washed two times with PBS/BSA and run on a BD LSRFortessa. Mononuclear cells are gated by SSCH/FSCH and single cells. Monocytes are then gated through CD14 positive gate and lymphocytes are gated through CD14 negative gate. To determine absolute DC50 and max degradation values, MFI values were normalized to DMSO max and 20 hour 10 μM min control. Twenty hour dose curves were calculated using a 4 parameter logistic regression curve fit, no constraints (Top doses were removed if hook effects were observed and the bottom was constrained to 0).
# IRAK4 [4] = target: T1, IRAK4; assay: IRAK4 degradation in human whole blood monocyte - flow cytometry; format: cell-based; settings: read-out: IRAK4 degradation in whole blood monocyte-Flow cytometry: Average external Abs IC50
# Method: as §1
# OCI-LY10 = assay: CTG Cell Viability Assay - OCI-LY10; format: cell-based, human; settings: OCI-LY10, 4 days, read-out: CTG Cell Viability Assay - OCI-LY10: Average external-IC50
# Procedure, shortened: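 Viability read by CellTiter-Glo luminescence after 4 days at 37° C under 5% CO2 with compound (top 10 μM final, 1:3 steps, 9 doses, DMSO 0.2%). Three-parameter logistic fit gave IC50.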
# TNFα [5] = assay: Human whole blood LPS TNFα assay; format: cell-based; settings: 20 h pretreatment, LPS 5 h, read-out: IRAK4 human whole blood LPS TNFa inhibition: Average external-IC50
# Method: Human Whole blood LPS TNFα assay. Whole blood was collected fresh and plated same day into 96 well plates at 180 μL per well. Compound plates were prepared in DMSO as 8-point dose curves in duplicate, starting dose 2 μM, 5-fold. Compounds are added 20 μL into blood for final 200 μL per well. Compound and cells were incubated at 37° C., 5% CO2 for 20 hours. After twenty hours of pretreatment with the compounds, LPS (01 1 1:B4) (Sigma #L2637) was added at 100 ng/ml final concentration and blood incubated an additional five hours at 37° C., 5% CO2. Following assay completion, whole blood plates were spun down at 2000 rpm for 15 minutes at 4° C. 50 μL of plasma was carefully removed and placed into a new 96 well Costar (#3879) plate and stored at −80° C. until further analysis. Meso scale Discovery (MSD) human V-plex assays were used to measure cytokine levels. On day of cytokine analysis, plasma samples were thawed, diluted with V-plex diluent #2, and directly to MSD plates. Assay was further completed per standard manufacturer's protocol. Cytokine data was normalized to LPS stimulated and unstimulated controls. Prism Graphpad was used to generate IC50 using 4 parameter logistic regression curve, free-fit.
# [6] = OCI-LY10, 4 hrs, read-out: IRAK4 MSD degradation in OCI-LY10 at 4 hrs: Average external-Abs DC50
Compound,IC50 (TNFα [1]) [nM],DC50 (IRAK4 [2]; [6]) [nM],DC50 (IRAK4 [3]) [nM],IC50 (IRAK4 [4]) [nM],"IC50 (OCI-LY10; Homo sapiens, OCI-Ly10, 96 h) [nM]",IC50 (TNFα [5]) [nM],DC50 (IRAK4 [4]) [nM],"DC50 (IRAK4 [2]; OCI-LY10, 24 hrs, read-out: IRAK4 MSD degradation in OCI-LY10 at 24 hrs: Average external-Abs DC50) [nM]",IC50 (OCI-LY10) [nM]
CN(CCCOCCCc1ccc2c(c1)n(C)c(=O)n2C1CCC(=O)NC1=O)C[C@H]1CC[C@H](n2cc(NC(=O)c3coc(-c4ccnc(NCC5CC5)c4)n3)c(C(F)F)n2)CC1 (stereo partly drawn) [I-62],100 to 500,< 10,< 50,< 50,50 to 100,> 1000,,,
O=C1CCC(N2C[C@H](c3ccc(C#CCN4CCO[C@@H](CNC[C@H]5CC[C@H](n6cc(NC(=O)c7coc(-c8ccnc(NCC9CC9)c8)n7)c(C(F)F)n6)CC5)C4)cc3)OC2=O)C(=O)N1 (stereo partly drawn) [I-40],< 50,10 to 100,100 to 500,< 50,< 50,100 to 500,,,
CN(CCOCCOCCCc1ccc2c(c1)oc(=O)n2C1CCC(=O)NC1=O)C[C@H]1CC[C@H](n2cc(NC(=O)c3coc(-c4ccnc(NCC5CC5)c4)n3)c(C(F)F)n2)CC1 (stereo partly drawn) [I-43],100 to 500,10 to 100,100 to 500,,> 1000,100 to 500,50 to 100,,
Cn1c(=O)n(C2CCC(=O)NC2=O)c2ccc(CCCN3CCO[C@H](CNC[C@H]4CC[C@H](n5cc(NC(=O)c6coc(-c7ccnc(NCC8CC8)c7)n6)c(C(F)F)n5)CC4)C3)cc21 (stereo partly drawn) [I-35],100 to 500,10 to 100,50 to 100,< 50,< 50,500 to 1000,,,
CN(C[C@H]1CN(CCCc2ccc3c(c2)n(C)c(=O)n3C2CCC(=O)NC2=O)CCO1)C[C@H]1CC[C@H](n2cc(NC(=O)c3coc(-c4ccnc(NCC5CC5)c4)n3)c(C(F)F)n2)CC1 (stereo partly drawn) [I-34],100 to 500,< 10,< 50,< 50,> 1000,100 to 500,,,
CN(C[C@@H]1CN(CCCc2ccc3c(c2)n(C)c(=O)n3C2CCC(=O)NC2=O)CCO1)C(=O)[C@H]1CC[C@H](n2cc(NC(=O)c3coc(-c4ccnc(NCC5CC5)c4)n3)c(C(F)F)n2)CC1 (stereo partly drawn) [I-17],< 50,< 10,50 to 100,< 50,100 to 500,500 to 1000,,,
Cn1c(=O)n(C2CCC(=O)NC2=O)c2ccc(CCOCCN3CCO[C@@H](CNC[C@H]4CC[C@H](n5cc(NC(=O)c6cnn7ccc(N8CCNCC8)nc67)c(C(F)F)n5)CC4)C3)cc21 (stereo partly drawn) [I-41],100 to 500,< 10,< 50,< 50,> 1000,500 to 1000,,,
Cn1c(=O)n(C2CCC(=O)NC2=O)c2cccc(CCCOCCNC[C@H]3CC[C@H](n4cc(NC(=O)c5coc(-c6ccnc(NCC(F)(F)F)c6)n5)c(C(N)=O)n4)CC3)c21 (stereo partly drawn) [I-11],< 50,< 10,< 50,< 50,> 1000,> 1000,,,
O=C1CCC(n2c3cc(CCCOCCOCCNC[C@H]4CC[C@H](n5cc(NC(=O)c6coc(-c7ccnc(NCC8CC8)c7)n6)c(C(F)F)n5)CC4)ccc3c3cccnc32)C(=O)N1 (stereo partly drawn) [I-81],500 to 1000,100 to 1000,> 1000,> 1000,> 1000,,,,
CN(C[C@@H]1CN(CCCc2ccc3c(c2)n(C)c(=O)n3C2CCC(=O)NC2=O)CCO1)C[C@H]1CC[C@H](n2cc(NC(=O)c3coc(-c4ccnc(NCC5CC5)c4)n3)c(C(C)(C)O)n2)CC1 (stereo partly drawn) [I-33],500 to 1000,< 10,< 50,,> 1000,,500 to 1000,,
CN(CCCOCCCc1cccc2c1n(C)c(=O)n2C1CCC(=O)NC1=O)C[C@H]1CC[C@H](n2cc(NC(=O)c3cccc(C(F)(F)F)n3)c(C(F)F)n2)CC1 (stereo partly drawn) [I-44],> 1000,> 1000,,,> 1000,> 1000,,> 1000,
CN(CC1CCN(Cc2cccc3c2n(C)c(=O)n3C2CCC(=O)NC2=O)CC1)C[C@H]1CC[C@H](n2cc(NC(=O)c3coc(-c4ccnc(NCC5CC5)c4)n3)c(C(F)F)n2)CC1 (stereo partly drawn) [I-76],< 50,< 10,50 to 100,,< 50,,50 to 100,,
CN(CCCCOCCCCc1cccc2c1n(C)c(=O)n2C1CCC(=O)NC1=O)C[C@H]1CC[C@H](n2cc(NC(=O)c3coc(-c4ccnc(NCC5CC5)c4)n3)c(C(F)F)n2)CC1 (stereo partly drawn) [I-67],50 to 100,< 10,50 to 100,,< 50,,50 to 100,,
CN(CCCOCCCc1cccc2c1n(C)c(=O)n2C1CCC(=O)NC1=O)C(=O)[C@H]1CC[C@H](n2cc(NC(=O)c3coc(-c4ccnc(NCC(F)(F)F)c4)n3)c(C(N)=O)n2)CC1 (stereo partly drawn) [I-29],,< 10,500 to 1000,,,> 1000,500 to 1000,,> 1000
"CN(CCCOCCCc1cccc2c1n(C)c(=O)n2C1CCC(=O)NC1=O)C(=O)[C@H]1CC[C@H](n2cc(NC(=O)c3coc(-c4ccnc(NCC(F)(F)F)c4)n3)c(C(N)=O)n2)CC1 (stereo partly drawn) [I-28, N-[3-carbamoyl-1-[4-[3-[3-[1-(2,6-dioxo-3-piperidyl)-3-methyl-2-oxo-benzimidazol-4-yl]propoxy]propyl-methylcarbamoyl]cyclohexyl]pyrazol-4-yl]-2-[2-(2,2,2-trifluoroethylamino)-4-pyridyl]oxazole-4-carboxamide]",,< 10,100 to 500,,,> 1000,50 to 100,,< 50
Cn1c(=O)n(C2CCC(=O)NC2=O)c2ccc(CCCOCCNC[C@H]3CC[C@H](n4cc(NC(=O)c5coc(-c6ccnc(NCC(F)(F)F)c6)n5)c(C(N)=O)n4)CC3)cc21 (stereo partly drawn) [I-8],,10 to 100,< 50,< 50,> 1000,> 1000,,,
Cn1c(=O)n(C2CCC(=O)NC2=O)c2cccc(CCCOCCOCCNC[C@H]3CC[C@H](n4cc(NC(=O)c5coc(-c6ccnc(NCC(F)(F)F)c6)n5)c(C(N)=O)n4)CC3)c21 (stereo partly drawn) [I-6],,< 10,< 50,< 50,> 1000,> 1000,,,
